Results on six molecules are retold here after PMC12256496, “An advancement in developmental and reproductive toxicity (DART) risk assessment: evaluation of a bioactivity and exposure-based NAM toolbox” (Frontiers in Toxicology, 2025).

A short description of data set [1]: Human in vivo PK data: concentration-dose ratio (CDR) and toxicokinetic variability factor (TKVF).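 Further: Literature-pooled human in vivo PK data, plasma, serum or cord blood concentrations per daily dose, weighted by study population size across non-pregnant, pregnant and fetal groups.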
Data set [2] is described as follows: hepatic intrinsic clearance, CLint (PBK parameter). The class given is in vitro ADME.
Data set [3] in a line: unbound fraction in plasma, fup (PBK parameter). The class given is in vitro ADME. Conditions: optimised based on [13].
Data set [4] is described as follows: renal clearance, Fup*GFR (PBK parameter). Conditions: method Fup*GFR.
The conditions of data set [5]: ref Supplementary Data Sheet 1, cited from earlier work.
For data set [6] the following is noted: existent consumer risk assessment for the cosmetic use scenario; ref SCCS / SCCP / SCCNFP; cited from earlier work.
The nature of data set [7]: water solubility (PBK parameter). The class given is physicochemical. As to conditions: Solubility pH 6.99, optimised based on [13], read-out: Aqueous Solubility.
For the next data set, the system named is serotonin receptor HTR2B. Nature of the data set: IPP: serotonin receptor HTR2B binding. As to conditions: low-risk exposure scenario. The text has this: (§1) In vitro pharmacological profiling is used to measure specific and high affinity non-covalent binding interactions between chemicals of interest and various targets with known safety liabilities. These targets include G protein coupled receptors (GPCRs), nuclear hormone receptors (NHRs), ion channels and enzymes. For this evaluation we included 72 targets of interest a full list of which is available in Supplementary Data Sheet 5, across a range of radioligand binding, enzymatic and protein-protein interaction assays run in binding mode only.
(§2) The process for deriving a PoD for each of the 72 targets consisted of a two-step method that has been widely adopted when conducting in vitro pharmacological profiling experiments ([Brennan et al., 2024]). […] Targets showing an inhibition or stimulation greater than 50% of a maximal response produced by a reference compound are followed up in a second phase which includes an eight-point concentration response (in two replicates). […] EC50 values (concentration producing a half-maximal response) and IC50 values (concentration causing a half-maximal inhibition of the control agonist response) were determined by the Bayesian probabilistic model of the concentration-response curves and the Hill equation as per ([Labelle et al., 2019]). […] Calculated IC50s were taken forwards as the IPP PoDs ([Middleton et al., 2022]). […]

The next data set concerns pigtail monkeys. Further details: method as in Supplementary Data Sheet 1. Conditions: the only dose tested, ref Supplementary Data Sheet 1; cited from earlier work.
The next data set relates to rats. Conditions: ref Supplementary Data Sheet 1, cited from earlier work.
The subject of another data set is mice. Further details: method as in Supplementary Data Sheet 1. Conditions: ref Supplementary Data Sheet 1; cited from earlier work.
Another data set relates to hamsters. The arrangement: method as in Supplementary Data Sheet 1. As to conditions: ref Supplementary Data Sheet 1; cited from earlier work.
A short description of data set [8]: Bioactivity exposure ratio (BER): minimum platform PoD / estimated Cmax. Conditions: low-risk scenario of normal dietary exposure to retinol and its metabolite.
Data set [9] has as its system human developmental and reproductive toxicity. As to conditions: ref Supplementary Data Sheet 1, cited from earlier work.
For data set [10], the system named is developmental or reproductive toxicity in animal or human. Conditions: evidence of developmental or reproductive toxicity in animal or human, irrespective of exposure/dose; ref Supplementary Data Sheet 1; cited from earlier work.
The conditions of data set [11]: ref [2]; cited from earlier work.
Details of data set [12]: method as in earlier work. As to conditions: ref [3]; cited from earlier work.
The conditions of data set [13]: cited from earlier work.
In a further data set the test system is thyroid peroxidase (TPO). The data set is described as follows: IPP: thyroid peroxidase (TPO) binding. As to conditions: low-risk exposure scenario.
Excerpt: as §1, §2

The conditions of data set [14]: ref PubChem; cited from earlier work.

≈ marks a conversion by molar mass, not a printed value. Read-outs that look alike come from different tables or passages of the source.

For the molecule `Cc1cc(C(C)(C)C)c(O)c(C(C)(C)C)c1` [Butylated hydroxytoluene (BHT), Butylated hydroxytoluene], the TKVF in data set [1] (Non-Pregnant, oral) stood at 2.5. Also, the “Intrinsic Liver Clearance” value in [2] (optimised based on [13]) is 22540.4 L/h. For the same molecule, in data set [3], the Fup is 0.33%. In data set [4], the “Renal Clearance” value came to 0.02382 L/h. Also, in data set [5] (OECD 416, effects on litter size, sex ratio and pup body weight gain), the “offspring NOAEL” value is “OECD 416: 0, ~25, ~100 and ~280 mg/kg/day. Effects on offspring. Offspring NOAEL of 25 mg/kg bw/day based on effects on litter size, sex ratio and pup body weight gain”. Besides, the MoS result in data set [6] is “Used safely in cosmetic products. Existent consumer risk assessment from the SCCS. MoS >3000”. In data set [7], the solubility was found to be 0.005 mg/mL (≈ 22.7 µM).
Regarding `CCOC(=O)c1ccccc1C(=O)OCC` [Diethyl phthalate (DEP), Diethyl phthalate], the “BER from binding to the serotonin receptor HTR2B” value with serotonin receptor HTR2B is under 1. Besides, the MoS result in data set [6] is listed as “Used safely in cosmetic products. Existent safety assessment from the SCCNFP. MoS 161”.
With `CC1=C(/C=C/C(C)=C/C=C/C(C)=C/C(=O)O)C(C)(C)CCC1` [all-trans-retinoic acid (ATRA), all-trans-retinoic acid], the “CDR fold difference to non-pregnant” value in data set [1] (female, human, in vivo) was determined as 0.77. Also, the “CDR fold difference to pregnant” value in [1] (female, human, in vivo) amounted to 1.00; in [1] (human, in vivo), 0.71. The TKVF in [1] (female, human, in vivo) is on record as 1.47. For the same molecule, the “dose at which gross external, soft tissue and skeletal alterations occurred” value in the data set on pigtail monkeys is given as 10 mg/kg/day. The figures for the “dose above which gross external, soft tissue and skeletal alterations occurred” value in the data set with rats (rats), in the data set on mice and with hamsters were over 2 mg/kg/day, over 0.7 mg/kg/day and over 7 mg/kg/day, respectively. Moreover, the BER in data set [8] is reported as under 1. For the same molecule, the “Exposure risk (DART risk classification)” value in [9] (Dietary, <10,000 IU Retinol, oral) was “Low Risk”; in data set [9] (Pharmaceutical, 80 mg/daily, oral), “High Risk”; in data set [9] (Pharmaceutical, 0.1% cream, dermal) it was “Uncertain Risk”. Moreover, in [10], the “DART Hazard Call” value was “Toxic”.
`Nc1cc([N+](=O)[O-])cc(Cl)c1O` [2-Amino-6-chloro-4-nitrophenol]: the Fup in [11] was 0.47%. Moreover, the Peff in [12] was 7.96 cm/s x E-04. Further, the “Aqueous Solubility” value in data set [13] (Solubility pH 5.04, ref [1]) is 450 mg/mL. In addition, the “Renal Clearance” value in data set [4] worked out at 0.034 L/h. For the same molecule, in data set [9] (Cosmetic, 2% in hair colourant, dermal), the “Exposure risk (DART risk classification)” value is recorded as “Low Risk”. The “NOAEL for maternal toxicity” value in data set [5] is given as 30 mg/kg bw. Also, the “DART Hazard Call” value in data set [10] is listed as “Non Toxic”. The MoS entry in data set [6] is given as “Used safely in cosmetic products. Existent consumer risk assessment from the SCCP. MoS >400”.
Regarding `Cc1c(O)cccc1O` [2-Methylresorcinol], the “Aqueous Solubility” value in data set [13] (Solubility pH 4.91, ref [7]) is given as 263 mg/mL. For the same molecule, in data set [4], the “Renal Clearance” value turned out to be 4.792 L/h. Besides, the “Exposure risk (DART risk classification)” value in [9] (Cosmetic, […] in hair colourant, dermal) is “Low Risk”. Besides, the “DART Hazard Call” value in data set [10] was “Non Toxic”. The MoS result in data set [6] is “Used safely in cosmetic products. Existent consumer risk assessment from the SCCS. MoS >4000”. Besides, the “BER from thyroid peroxidase (TPO) binding” value in the data set on thyroid peroxidase (TPO) is under 1.
As for `CCCCC(CC)C(=O)O` (centres unmarked) [2-Ethylhexanoic acid (2-EHA), 2-Ethylhexanoic acid], the “Intrinsic Liver Clearance” value in [2] (optimised based on [16]) came out at 7.128 L/h. Besides, in the data set with rats (2 rat studies, clubfoot/reduced skeletal ossification), the “developmental NOAEL” value is on record as 100 mg/kg bw/day. Also, the “NOAEL for parental effects” value in the data set with rats (EOGRT in rats) was 250 mg/kg bw/d. The “Renal Clearance” value in [4] was 0.008 L/h. Moreover, in data set [14], the “pKa Value ACID” value is 4.8.
